18 molecules from PubChem BioAssay (NCI) can be followed below.

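Results reflect a 48-hour exposure of cells in 96-well plates to compound at five concentrations. Abbreviation: GI50, concentration required for 50% inhibition of growth. Definition used: TGI = concentration required for complete inhibition of growth.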

Test systems include T-47D breast; HS 578T breast; BT-549 breast; NCI/ADR-RES ovarian; DU-145 prostate; LXFL 529 NSCLC; HOP-18 NSCLC; RXF-631 renal.
Common to all, as to assay: NCI-60 cell line screen, 48 h

For the molecule `O=C(CCc1nnc2sc(-c3ccc(Cl)cc3Cl)nn12)c1nc2ccccc2[nH]1`, the GI50 was 0.916 µM with T-47D breast; 2.23 µM with HS 578T breast; 2.14 µM with BT-549 breast; 1.42 µM in the assay on NCI/ADR-RES ovarian; 1.15 µM with DU-145 prostate. The TGI with T-47D breast was 2.92 µM; in the assay with HS 578T breast, 8.29 µM; in the assay on BT-549 breast it was 4.99 µM; in the assay on NCI/ADR-RES ovarian, 6.15 µM; in the assay on DU-145 prostate, 2.38 µM.
For `Cn1c2ccccc2c2ccc3c(c21)C(=O)c1ccccc1C3=O`, the TGI was 49.8 µM in the assay on T-47D breast; 46.6 µM in the assay with HS 578T breast; 50.9 µM with BT-549 breast; 45.4 µM with NCI/ADR-RES ovarian; above 100 µM in the assay with DU-145 prostate.
`NC12CC3CC(C1)CC(C(=O)O)(C3)C2`: the TGI in the assay with LXFL 529 NSCLC and in the assay with HOP-18 NSCLC was above 100 µM each time.
Regarding `Nc1nc2c(nnn2C2CC(O)C(CO)O2)c(=O)[nH]1` (centres undefined), the GI50 with T-47D breast is 4.59 µM; in the assay with HS 578T breast it was above 33.9 µM; in the assay on BT-549 breast, 4.14 µM; in the assay with NCI/ADR-RES ovarian it was 3.08 µM; in the assay with DU-145 prostate, 1.45 µM. The TGI is above 65.1 µM with T-47D breast; above 95.7 µM in the assay with HS 578T breast; above 59.9 µM in the assay with BT-549 breast; above 100 µM in the assay with NCI/ADR-RES ovarian; above 100 µM with DU-145 prostate.
Regarding `CCOC1Oc2ccc(C)cc2C(=O)/C1=C\Nc1ccc(C(N)=O)cc1` (centres undefined), the GI50 is 6.13 µM in the assay on T-47D breast; 22.8 µM in the assay on HS 578T breast; 15.5 µM with BT-549 breast; 17.7 µM in the assay with NCI/ADR-RES ovarian; 21.7 µM with DU-145 prostate. Moreover, the TGI was above 100 µM with T-47D breast; 64.4 µM with HS 578T breast; 62.9 µM in the assay on BT-549 breast; 44.7 µM with NCI/ADR-RES ovarian; 60.4 µM in the assay with DU-145 prostate.
For the molecule `CC(SC(=S)N1CCOCC1)c1cc2oc(=O)n(C)c2cc1Cl` (centres undefined), the TGI in the assay with LXFL 529 NSCLC and with HOP-18 NSCLC was above 100 µM throughout.
As for `CCc1ccccc1NC(=O)C1=C(C)NC(C)=C(C(=O)Nc2ccccc2CC)C1c1ccc2c(c1)OCO2`, in the assay on LXFL 529 NSCLC, the TGI came to 98.4 µM.
Turning to `O=C(CCc1cc(-c2ccccc2)nc(=S)[nH]1)N(Cc1ccccc1)Cc1ccccc1`, the TGI with LXFL 529 NSCLC and with HOP-18 NSCLC was above 100 µM each time.
For the molecule `O=C1CCC(N2C(=O)c3ccccc3C2=O)C(=O)N1CO` (centres undefined), the GI50 in the assay with T-47D breast was 78 µM; in the assay on HS 578T breast, above 100 µM; with BT-549 breast, 52.6 µM; in the assay on NCI/ADR-RES ovarian it was above 100 µM; in the assay with DU-145 prostate, 25 µM. Besides, the TGI is above 100 µM in the assay with T-47D breast; above 100 µM with HS 578T breast; above 100 µM in the assay on BT-549 breast; above 100 µM in the assay on NCI/ADR-RES ovarian; 79.6 µM with DU-145 prostate.
In turn, `COc1ccc2nc3c(C(=O)NCCN(C)C)cccc3nc2c1` gave a TGI in the assay on HOP-18 NSCLC above 100 µM.
In the case of `CC[C@@]1(c2ccccc2)C2=C(CC(C)(C)CC2=O)Nc2[nH]ncc21`, the GI50 with T-47D breast is above 100 µM; in the assay with HS 578T breast, 96.4 µM; with BT-549 breast, above 100 µM; in the assay on NCI/ADR-RES ovarian, above 100 µM; in the assay on DU-145 prostate it was above 100 µM. For the same molecule, the TGI in the assay on T-47D breast, in the assay on HS 578T breast, in the assay on BT-549 breast, with NCI/ADR-RES ovarian and in the assay with DU-145 prostate was above 100 µM each time.
Regarding `O=C(CCN(C(=O)O)S(=O)(=O)c1ccc(NC(=O)c2ccccc2)cc1)NC1CCCCC1`, the TGI in the assay with LXFL 529 NSCLC and in the assay on HOP-18 NSCLC was above 100 µM throughout.
With `O=S(=O)(NC1=NCCN1C(=S)SN1CCn2c1nsc2=S)c1cccc(Cl)c1`, the GI50 with T-47D breast is 6.81 µM; in the assay with HS 578T breast, 39.3 µM; with BT-549 breast, 22.3 µM; in the assay with NCI/ADR-RES ovarian, 21.4 µM; in the assay with DU-145 prostate it was 22.2 µM. Moreover, the TGI in the assay with T-47D breast was 25.7 µM; with HS 578T breast, above 100 µM; in the assay on BT-549 breast, 68.4 µM; in the assay on NCI/ADR-RES ovarian, 69.3 µM; in the assay with DU-145 prostate, 64.6 µM.
Regarding `NC1=NC(c2ccccc2)CC(c2cc(Cl)ccc2O)=N1` (centres undefined), the TGI turned out to be 28.3 µM in the assay with LXFL 529 NSCLC and 35.6 µM with HOP-18 NSCLC.
As for `CCN(CC)CCCC(C)Nc1c2ccc(Cl)cc2nc2ccc(O)cc12` (centres undefined), the GI50 in the assay on T-47D breast was 3 µM; with HS 578T breast it was 1.68 µM; in the assay on BT-549 breast, 5.38 µM; with NCI/ADR-RES ovarian it was 11 µM; in the assay with DU-145 prostate it was 2.26 µM. In addition, the TGI stood at 11.6 µM in the assay with T-47D breast; 5.55 µM with HS 578T breast; 18.3 µM with BT-549 breast; 26.4 µM with NCI/ADR-RES ovarian; 8.39 µM with DU-145 prostate.
Take `O=[N+]([O-])c1ccc(C=NC2CCCCC2)cc1`: the TGI with RXF-631 renal and in the assay with HOP-18 NSCLC was above 100 µM each time.
For the molecule `CCCCCCCC(=O)OCC/C=C/C1OC1C1OC(=O)/C=C\C=C\c2nc(oc2C)/C=C(/C)CCC2OC2C1OC(=O)NC(C)=O` (centres undefined), the GI50 was 0.042 µM in the assay on T-47D breast; 0.0776 µM in the assay with HS 578T breast; 0.0466 µM in the assay on BT-549 breast; 0.165 µM in the assay on NCI/ADR-RES ovarian; 0.0526 µM with DU-145 prostate. Besides, the TGI in the assay with T-47D breast is 0.161 µM; in the assay on HS 578T breast it was 0.221 µM; in the assay on BT-549 breast, 0.168 µM; in the assay on NCI/ADR-RES ovarian, 1.88 µM; in the assay with DU-145 prostate it was 1.37 µM.
Regarding `C#CCNC(=O)c1cccc2c1cc(C)n2-c1nc2c(c(NCc3ccccc3)n1)CCCC2`, the GI50 with T-47D breast was 0.0283 µM; with HS 578T breast, 0.0321 µM; in the assay on BT-549 breast, 0.0265 µM; in the assay on NCI/ADR-RES ovarian, 0.0281 µM; with DU-145 prostate, 0.0298 µM. The TGI in the assay on T-47D breast is 0.117 µM; in the assay on HS 578T breast it was 0.954 µM; in the assay with BT-549 breast it was 0.0643 µM; in the assay on NCI/ADR-RES ovarian, 0.101 µM; in the assay with DU-145 prostate, 0.108 µM.
